Results as given in US20060067990A1 (priority 2004, published 2006).
Where “and” joins values, the source holds several entries; their conditions need not be identical. Equal entries are not always repeated.

Experiments:
S. aureus MN8 = format: cell-based, Staphylococcus aureus
TSST-1 [1] = format: cell-based, Staphylococcus aureus
[2] = system: enzymes produced by S. aureus MN8; assay: Breakdown of test compounds by enzymes produced by S. aureus MN8 (GC/MS and liquid chromatography of culture fluid); format: in vitro ADME, Staphylococcus aureus; settings: Example 7; for GC/MS: concentration of the dominant compound over time / GC/MS: dominant compound found in the sample: culture fluid at 3, 6, 9 and 24 hours
Description: The test compounds, in the desired concentrations, were placed in 100 mL of a growth medium in a sterile, 500 mL Corning Fleaker (Fisher Scientific, Pittsbury, Pa.). The growth medium and inoculum were prepared as in Example 1.
The test compounds were added to the growth medium in the amount necessary to obtain the desired final concentration.
Each fleaker was inoculated with the amount of inoculum determined as described above. The fleakers were capped with sterile aluminum foil and incubated at 35° C. in atmospheric air in a Lab-Line orbital water bath (available from VWR Scientific Products, McGaw Park, Ill.) at 180 rpm. Fifteen milliliter samples were removed at 3, 6, 9, and 24 hours. The optical density (595 nm) of the culture fluid was determined and the culture fluid collected at 24 hours was assayed for the number of colony forming units of S. aureus MN8 using standard plate count procedures.
In preparation for analysis of the integrity of the test compounds, the culture fluid was centrifuged at 3000 rpm at 2-10° C. for 15 minutes. The supernatant was filter sterilized through an AUTOVIAL 5 syringeless filter, […] pore size (available from Whatman, Inc., Clifton, N.J.). The resulting fluid was frozen at −70° C. in a FISHERBRAND (12 mm×75 mm) polystyrene culture tube (Fisher Scientific, Pittsburgh, Pa.) until chemical analysis could be performed.
Using an Agilent Technologies 5973N GC/MS, analysis was performed on undiluted solutions at 3, 6, 9, and 24 hours to evaluate the ability of S. aureus MN8 to breakdown the test compounds. Based on the analysis, the control sample, which had no test compounds added, comprised mostly acetic acid at all time intervals.
Additional analysis of the 6 hour and 24 hour samples was conducted by liquid chromatography. In preparation for the chromatography, the samples were diluted 10 fold with water. The dilutions were then analyzed using an ion exclusion column to achieve the separation. Detection of the compounds was accomplished through UV absorbance at 230 nm.

TSST-1 [3] = format: cell-based, Staphylococcus aureus; remark: listed apart in the source

Row | Compound | CFU/mL (S. aureus MN8) | GC/MS: concentration of the dominant compound over time [2] | GC/MS: dominant compound found in the sample [2] | further results
1 | CC(C)CC(NC(=O)c1ccccc1)C(=O)O (racemic) [N-benzoyl-DL-leucine, N-Benzoyl-DL-Leucine] | 2.23E+08 CFU/mL and 2.69E+08 CFU/mL | decreasing concentration over time | benzoic acid as the dominant compound | ELISA: TSST-1 ng per mL (TSST-1 [1]): 7.9 ng per mL and 14.6 ng per mL; liquid chromatography: evidence of breakdown to the active species ([2]; 6 hour and 24 hour samples, UV 230 nm): breakdown to benzoic acid
2 | CC(C)C(NC(=O)c1ccccc1)C(=O)O (racemic) [N-benzoyl-DL-valine, N-Benzoyl-DL-Valine] | 1.61E+08 CFU/mL and 2.07E+08 CFU/mL | – | – | –
3 | OCc1ccccc1 [Benzyl alcohol, benzyl alcohol] | 5.02E+08 CFU/mL and 7.52E+08 CFU/mL | decreased over time | benzyl alcohol | toxin production, pairwise statistical comparison (TSST-1 [1]): significantly decreased toxin production; TSST-1 ng/mL (TSST-1 [3]): 2.46 ng/mL and 2.22 ng/mL and 1.33 ng/mL
4 | CCCCCCCCCCCC(=O)OCc1ccccc1 [Benzyl laurate, Benzyl- laurate] | 2.05E+08 CFU/mL and 3.05E+08 CFU/mL and 4.05E+08 CFU/mL and 3.80E+08 CFU/mL | – | – | –
5 | O=C(O)c1ccccc1 [benzoic acid] | – | decreased over time | benzoic acid | –
6 | myreth-3-myristate [Cetiol 1414E] | 1.75E+08 CFU/mL and 2.61E+08 CFU/mL and 2.48E+08 CFU/mL and 2.05E+08 CFU/mL | – | – | CFU/mL ×10^7 (S. aureus MN8): 22.5 CFU/mL ×10^7 and 25.6 CFU/mL ×10^7 and 17.4 CFU/mL ×10^7; inhibition of the growth of S. aureus, pairwise statistical comparison (S. aureus MN8): significantly greater inhibition of the growth of S. aureus; % Reduction (TSST-1 [1]): 74% and 69% and 87%; ELISA: TSST-1 (% inhibition) (TSST-1 [1]): (79%); ELISA: TSST-1 Nanograms/mL (TSST-1 [1]): 61 Nanograms/mL
